BindingDB's records for doi:10.1021/jm000468c (Abbott Laboratories, 2001)

Assay: Inhibitory activity was determined against Neuraminidase A from influenza virus A/Tokyo/3/67

SMILES | IC50
CC(C)N(C(=O)N1C[C@H](C(=O)O)[C@H](N=C(N)N)C1)C(C)C [1-Diisopropylcarbamoyl-4-guanidino-pyrrolidine-3-carboxylic acid] | 13 µM
CCC(CC)C(=O)N1C[C@H](N)[C@H](C(=O)O)C1 [4-Amino-1-(2-ethyl-butyryl)-pyrrolidine-3-carboxylic acid] | 22 µM
CCN(C(=O)N1C[C@H](N)[C@H](C(=O)O)C1)C(C)C [4-Amino-1-(ethyl-isopropyl-carbamoyl)-pyrrolidine-3-carboxylic acid] | 1.6 µM
CC(C)N(CCO)C(=O)N1C[C@H](N)[C@H](C(=O)O)C1 [4-Amino-1-[(2-hydroxy-ethyl)-isopropyl-carbamoyl]-pyrrolidine-3-carboxylic acid] | 21 µM
CC(C)N(CCCN)C(=O)N1C[C@H](N)[C@H](C(=O)O)C1 [4-Amino-1-[(3-amino-propyl)-isopropyl-carbamoyl]-pyrrolidine-3-carboxylic acid] | 46 µM
CC(C)N(CCCC(=O)O)C(=O)N1C[C@H](N)[C@H](C(=O)O)C1 [4-Amino-1-[(3-carboxy-propyl)-isopropyl-carbamoyl]-pyrrolidine-3-carboxylic acid] | 19 µM
CC(C)N(CCCO)C(=O)N1C[C@H](N)[C@H](C(=O)O)C1 [4-Amino-1-[(3-hydroxy-propyl)-isopropyl-carbamoyl]-pyrrolidine-3-carboxylic acid] | 2.1 µM
CC(C)N(CCCCC(=O)O)C(=O)N1C[C@H](N)[C@H](C(=O)O)C1 [4-Amino-1-[(4-carboxy-butyl)-isopropyl-carbamoyl]-pyrrolidine-3-carboxylic acid] | 1.3 µM
CC(C)N(CCCCCO)C(=O)N1C[C@H](N)[C@H](C(=O)O)C1 [4-Amino-1-[(5-hydroxy-pentyl)-isopropyl-carbamoyl]-pyrrolidine-3-carboxylic acid] | 2 µM
CC(C)N(CCc1ccccn1)C(=O)N1C[C@H](N)[C@H](C(=O)O)C1 [4-Amino-1-[isopropyl-(2-pyridin-2-yl-ethyl)-carbamoyl]-pyrrolidine-3-carboxylic acid] | 1.3 µM
CCN(CC)C(=O)N1C[C@H](N)[C@H](C(=O)O)C1 [4-Amino-1-diethylcarbamoyl-pyrrolidine-3-carboxylic acid] | 25 µM
CC(C)N(C(=O)N1C[C@H](N)[C@H](C(=O)O)C1)C(C)C [4-Amino-1-diisopropylcarbamoyl-pyrrolidine-3-carboxylic acid] | 4 µM
CCCN(CCC)C(=O)N1C[C@H](N)[C@H](C(=O)O)C1 [4-Amino-1-dipropylcarbamoyl-pyrrolidine-3-carboxylic acid] | 32 µM
CCN(C(=O)N1C[C@@H](C(=O)O)[C@@H](N)[C@@H]1CNC(C)=O)C(C)C [5-(Acetylamino-methyl)-4-amino-1-(ethyl-isopropyl-carbamoyl)-pyrrolidine-3-carboxylic acid] | 7.5 µM
CC(C)(C)OC(=O)N1C[C@@H](N)[C@@H](C(=O)O)C1 [A-87380] | 50 µM
